According to patent US11246873B2, “Directed differentiation of oligodendrocyte precursor cells to a myelinating cell fate” (The Scripps Research Institute, priority 2011, dated 2022):
“Also recorded” adds a separate entry of the source.

Legend:
muscarinic receptor = assay: Carbachol co-treatment in compound induced OPC differentiation (MBP staining); format: cell-based, rat; details: compounds at EC90 (benztropine 2.3 uM), serial dilutions of carbachol, 6 days
Procedure: (§1) Following 6 days of treatment, cells were fixed and stained for MBP. Plates were imaged using the OPERA high content screening system and MBP staining was quantified as described. […] OPCs were plated in 384-well plates at 5000 cells per well in media containing basal PDGF-αα. Cells were equilibrated with Ca^2+ sensitive Fluo-3AM® dye in HBSS for 30 min. […] Ca^2+ influx was immediately measured using the FLIPR TETRA® system.
OPCs express mAChRs, predominantly subtypes M1, M3, and M5 (F. Ragheb et al., J Neurochem, 77, 1396 (2001)). […] Activation of M1 and M3 mAChRs is coupled to downstream signal transduction events through phospholipase C, which results in increased intracellular calcium concentrations (F. Ragheb et al., J Neurochem, 77, 1396 (2001)) (FIG. 23C). M2 and M4 mAChR activation inhibits adenylatecyclase, leading to decreased intracellular cAMP levels (C. C. Felder, FASEB J, 9, 619 (1995); M. Lopez-Ilasaca et al., Science, 275, 394 (1997)). […] Acetylcholine is a known regulator of OPC proliferation and, as such, muscarinic receptor subtypes represent a reasonable class of therapeutic targets for the modulation of OPC proliferation and differentiation (F. De Angelis et al., Dev Neurobiol, (2011)).

OPCs [1] = assay: qRT-PCR of MBP and MOG expression in compound treated OPCs; format: cell-based, rat; details: EC90 concentrations, 6 days
From the text: FIG. 2A-C. […] (A) Western blot analysis of OPCs treated with compounds at EC90 concentrations for 6 days. Total protein was isolated from cell pellets and probed for myelin basic protein (MBP) and myelin oligodendrocyte glycoprotein (MOG) using specific antibodies. (B-C) Quantitative RT-PCR (qRT-PCR) analysis of OPCs treated with compounds at EC90 concentrations for 6 days. Total RNA was isolated from cell pellets and reverse transcribed. MBP and MOG expression was quantified using specific probes and Taqman-based qRT-PCR. Expression was normalized to the internal controls β-actin and GAPDH. Fold change in gene expression over DMSO treated control cells is plotted for MBP (B) and MOG (C).

[2] = test system: M1/M3 muscarinic receptors
Procedure: as §1
(A-C) OPCs were plated in differentiation media for 12 hours. […] (C) Atropine, a muscarinic antagonist, serves as a positive control. (D) OPCs were plated in differentiation medium for 12 hours. A cAMP-HTRF assay was performed using the cAMP dynamic 2 kit. […] IBMX was added as a cAMP stabilizer, and forskolin was a positive control.

[3] = test system: rat optic nerve derived OPCs; assay: High content imaging assay of OPC differentiation (MBP immunostaining, OPERA); format: cell-based; details: for induction of OPC differentiation (MBP staining): OPCs in differentiation medium (2 ng/ml PDGF), 6 days
Procedure: FIG. 1A-C. […] The calculated EC50 values were determined using appropriate Graphpad Prism 5.0 curve fitting software. […] OPCs were plated in 384 well plates at 1000 cells per well in OPC media containing basal PDGF-αα (2 ng/mL) and treated with serial dilutions of compounds. Following six days of compound treatment, cells were fixed and subjected to immunofluorescence analysis using anti-myelin basic protein (MBP) antibody. Image acquisition and quantification of MBP staining was performed using the OPERA imaging system.
FIG. 11A-B. Screen to identify inducers of OPC differentiation. (A) OPCs were maintained as proliferating A2B5-positive cells under basal growth conditions (Neurobasal medium, B27 supplement without Vitamin A, non-essential amino acids, L-Glutamine, 30 ng/ml PDGF). OPCs were plated in basal differentiation media (Neurobasal medium, B27 supplement without Vitamin A, non-essential amino acids, L-Glutamine, 2 ng/ml PDGF), treated with DMSO (<0.1%) or thyroid hormone (1 uM), fixed after 6 days in culture, and stained using antibodies for CNP, O4, or MBP. […] (B) Screen strategy using A2B5 positive OPCs cultured under basal differentiation conditions and treated with compounds for 6 days to identify small molecules that induce the differentiation of OPCs to mature, MBP expressing oligodendrocytes.
FIG. 12A-B. Primary hit confirmation. (A) Dose response assay used to confirm primary screening hits and determine potency (EC50). (EC50) is defined as the concentration that results in a half maximal increase in the percentage of total cells that express MBP as detected by immunostaining. […] Cells were fixed and immunostained using antibodies for MBP. Error bars represent standard deviations from 3 replicate experiments. […]
FIG. 21. […] OPCs were plated in differentiation medium (2 ng/ml PDGF) and treated with various concentrations of compounds for 6 days. Cells were fixed and immunostained for MBP.
A large-scale small molecule screen was conducted to identify small molecules that promote the differentiation of oligodendrocyte precursor cells (OPCs) to a mature myelinating fate. High content imaging was used to detect in-well differentiation of rat optic nerve derived OPCs. Rat optic nerve derived OPCs were expanded en masse in OPC media containing 30 ng/mL PDGFαα. To screen for small molecule inducers of OPC differentiation, OPCs (cultured for fewer than 15 passages) were plated in poly-D-lysine coated 384 well culture plates in OPC Media containing 2 ng/mL PDGFαα and immediately treated with compounds at a final concentration of 6 μM (0.6% DMSO). Compound treated cells were incubated at 37° C., 5% CO2 for 6 days. At the end of 6 days, cells were fixed in 4% paraformaldehyde and subjected to immunofluorescence analysis. Anti-Myelin Basic Protein monoclonal antibody (a.a. 129-138, clone 1 monoclonal antibody, Millipore) (1:1000 dilution) in blocking buffere solution (3% BSA, 0.3% Triton X-100 in PBS) was added to fixed and washed cells and incubated at 4° C. overnight.

OPCs [4] = assay: Immunofluorescence analysis of mature oligodendrocyte markers (MBP, MOG, CNP, GalC, O1, O4); format: cell-based, rat; details: OPCs treated 6 days
From the text: FIG. 3. Immunofluorescence analysis of compound treated OPCs using mature oligodendrocyte specific markers. Immunofluorescence staining using specific antibodies for MBP, MOG, and 2′,3′-cyclic nucleotide 3′ phosphodiesterase (CNP). Nuclei were identified using DAPI.
FIG. 4. Immunofluorescence analysis of compound treated OPCs using mature oligodendrocyte specific markers. Immunofluorescence staining using specific antibodies for galactocereberoside (GalC), oligodendrocyte marker O1 (O1) and oligodendrocyte marker O4 (O4). Nuclei were identified using DAPI.
FIG. 14. Compound treatment induces the differentiation of OPCs to mature oligodendrocytes. […] Cells were fixed and immunostained for MBP, MOG, CNP, GalC, O1, or O4.
Immunofluorescence was also used to confirm that the hits were able to induce oligodendrocyte maturation.

OPCs [5] = assay: Western blot of MBP and MOG in compound treated OPCs; format: cell-based, rat; details: OPCs treated 6 days
From the text: FIG. 2A-C. Neurotransmitter receptor modulating agents induce the differentiation of OPCs to a myelinating oligodendrocyte cell fate. (A) Western blot analysis of OPCs treated with compounds at EC90 concentrations for 6 days. Total protein was isolated from cell pellets and probed for myelin basic protein (MBP) and myelin oligodendrocyte glycoprotein (MOG) using specific antibodies. (B-C) Quantitative RT-PCR (qRT-PCR) analysis of OPCs treated with compounds at EC90 concentrations for 6 days. Total RNA was isolated from cell pellets and reverse transcribed. MBP and MOG expression was quantified using specific probes and Taqman-based qRT-PCR. Expression was normalized to the internal controls β-actin and GAPDH. Fold change in gene expression over DMSO treated control cells is plotted for MBP (B) and MOG (C).
FIG. 13. […] After 6 days in culture, cells were analyzed for MBP and MOG expression by Western blot.

PLP induced EAE mice = test system: PLP induced EAE mice
Procedure: (A-E) SJL mice were immunized with proteolipid peptide (PLP) and pertussis toxin and monitored daily with scoring on the standard clinical EAE scale (0-5). Compounds were administered daily for the duration of the study in saline at 10 mg/kg via intra-peritoneal injection (0.1 ml), starting on the day of the appearance of clinical EAE symptoms (day 10). […] Mean clinical EAE score and standard error of mean (SEM) are shown for each study group.
FIG. 25. […] EAE was induced in mice using PLP and pertussis toxin. […] Prophylactic dosing is defined as administration of compound commenced on the day of PLP injection. Error bars indicate standard deviation of the mean within each group of 8 mice.
(A-F) EAE was induced in mice using PLP and pertussis toxin. […] Error bars indicate standard deviation of the mean within each group of 8 mice.
(A-F) EAE was induced in mice by injecting PLP in complete Freund's adjuvant (CFA) and pertussis toxin, and the animals were scored daily for clinical severity of disease on a scale of 0-5. […] Error bars indicate standard deviation of the mean within each group of 8-10 mice.
10 week old SJL mice were immunized with PLP emulsion and pertusis toxin to induce EAE. […] Compounds were administered daily via intraperitoneal injection of 100 ul in sterile saline at 10 mg/kg alone or in combination with mycophenolate motefil in sterile saline at pH 5 at 20 mg/kg. Compound administration was initiated at disease onset (day 10) while mycophenolate motefil administration was initiated on Day 14. The mice were scored daily on a standard EAE scale of 0-5.
This model is most commonly used to evaluate the potential efficacy of immunomodulatory agents, but can also be used to determine the effectiveness of promyelinating agents that function by enhancing OPC differentiation (M. Fernandez et al., Proc Natl Acad Sci U.S.A, 101, 16363 (2004); X. Lee et al., J Neurosci, 27, 220 (2007); reviewed in R. J. Franklin, C. Ffrench-Constant, Nat Rev Neurosci, 9, 839 (2008)). […] We next evaluated efficacy when the drug is dosed therapeutically, by starting daily injections at the first sign of disease onset.
For the treatment of MS, an OPC differentiation inducing drug would most likely be introduced clinically as part of a combination therapy with an immunosuppressive drug. […] The former reduces T-cell proliferation and alters cytokine expression (A. Noronha, A. Toscas, M. A. Jensen, J Neuroimmunol, 46, 145 (1993); A. Noronha, A. Toscas, M. A. Jensen, Ann Neurol, 27, 207 (1990)), while the latter is an S1P agonist that regulates T-cell trafficking (V. Brinkmann et al., J Biol Chem, 277, 21453 (2002); V. Brinkmann et al., Nat Rev Drug Discov, 9, 883 (2010)).

[6] = test system: total splenocytes stimulated with CD3; assay: T-cell activation (CD69, CD25) and proliferation (CFSE) in vitro; format: cell-based, mouse; details: versus DMSO
From the text: (A-F) Total splenocytes were isolated from mice and stimulated with CD3 and analyzed by flow cytometry for expression of T-cell activation markers CD69 and CD25 and T-cell proliferation using CFSE. (A) Unstimulated cells. (B) DMSO treated cells. […] The numbers represent percentage gated populations positive for the given marker.
The primary immunological processes involved in MS and EAE are T-cell mediated and the primary treatment paradigms are based on immunomodulatory drugs (T. Kopadze et al., Arch Neurol, 63, 1572 (2006); J. M. Greer et al., J Immunol, 180, 6402 (2007), M. P. Pender and J. M. Greer, curr Allergy Asthma Rep, 7, 285 (2007)).

SMILES | effect of carbachol on compound induced OPC differentiation (muscarinic receptor) | induction of MBP expression (qRT-PCR) over DMSO (OPCs [1]) | induction of MOG expression (qRT-PCR) over DMSO (OPCs [1]) | effect on carbachol induced Ca2+ influx [2] | percentage of resulting MBP-positive cells ([3]; OPC sample cultured with agent at maximum potency, listed as GBT12935) | induction of OPC differentiation (MBP staining) [3] | markers of mature myelinating oligodendrocytes (MBP, MOG, CNP, GalC, O1, O4) by immunofluorescence (OPCs [4]) | MBP and MOG expression (Western blot) (OPCs [5]) | effect of carbachol on compound induced OPC differentiation (muscarinic receptor; listed as carbapentane) | mean maximal clinical EAE score in relapse, day 25 (PLP induced EAE mice; SJL mice, scale 0-5, compounds 10 mg/kg i.p. daily from day 10, mycophenolate mofetil 20 mg/kg from day 14, mean ± SEM) | clinical severity versus vehicle, dosing after disease onset (therapeutic mode) (PLP induced EAE mice; compounds 10 mg/kg i.p. daily from first EAE symptoms, mycophenolate 20 mg/kg from day 14) | T-cell activation (CD69, CD25) [6] | T-cell proliferation (CFSE) [6]
c1ccc(CCCN2CCN(CCOC(c3ccccc3)c3ccccc3)CC2)cc1 [GBR12935] | did not inhibit; also recorded: no effect | two-fold | two-fold | no effect | over 15% | promote OPC differentiation | confirmed the presence of multiple markers of mature myelinating oligodendrocytes | positive | – | – | – | – | –
CCN(CC)CCOCCOC(=O)C1(c2ccccc2)CCCC1 [carbetapentane] | inhibited | two-fold | two-fold | inhibit | – | promote OPC differentiation | confirmed the presence of multiple markers of mature myelinating oligodendrocytes | positive | dose dependent inhibition | – | – | – | –
OCc1cc(C(O)CNCCCCCCOCCCCc2ccccc2)ccc1O (stereo not drawn) [salmeterol] | did not inhibit; also recorded: no effect | two-fold | two-fold | no effect | – | promote OPC differentiation | confirmed the presence of multiple markers of mature myelinating oligodendrocytes | positive | – | – | – | – | –
COc1c(C)c2c(c(O)c1C/C=C(\C)CCC(=O)OCCN1CCOCC1)C(=O)OC2 [Mycophenolate mofetil, mycophenolate mofetil] | – | – | – | – | – | – | – | – | – | 0.7±0.3 | decrease in severity of the relapse | suppresses the activation and proliferation of T-cells | suppresses T-cell proliferation
